Results from patent publication US20230219931A1, “FUSED HETEROARYL HYDROXAMATES AS STING AGONISTS” (BiSiChem Co., Ltd., priority 2022, published 2023).
Where a name gives a salt, the structure may show the parent alone.

System: ISG reporter activity in THP1-Dual cell
Experiment: ISG reporter assay
Assay type: cell-based
Details: Homo sapiens, compounds incubated with cells for 24 hours, QUANTI-Blue, absorbance at 655 nm
Procedure: [Worded in the source for another cell line; this cell line is reported under the same test.] THP1-Blue cells (cat. no. thp-isg) were purchased from InvivoGen (Sandiago, USA). Penicillin—streptomycin (cat. no. L0022-100), Fetal Bovine Serum (FBS) (cat. no. S1480-500) and Roswell Park Memorial Institute (RPMI) 1640 media (cat. L0498-500) were purchased from biowest (Nuaille, France). Zeocin (cat. no. ant-zn-OS) and Normocin (cat. no. ant-nr-1) were purchased from InvivoGen (Sandiago, USA). QUANTI-Blue™ (cat. no. rep-qbs) was purchased from InvivoGen. THP1-Blue cells were cultured in RPMI 1640 medium with 10% heat-inactivated FBS, 100 μg/ml Normocin, 100 μg/ml Zeocin and 100 U/ml-100 μg/ml penicillin-streptomycin. The cells were incubated at 37° C. in a humidified atmosphere of 5% CO2.
THP1-Blue cells were seeded at 5×10^4 cells/well (90 μl/well). 10 μl of compounds were added to the cells and incubated for 24 hours. 20 μl of cell culture supernatant was dispensed new 96-well plate (cat. no. 30096) with 180 μl of QUANTI-Blue™ solution and incubated for 15 minutes at 37° C. The absorbance was measured by Varioskan Lux (Thermofisher Scientific, USA) at 655 nm.

Row | Structure (SMILES) | EC50
1 | CCn1nc(C)cc1C(=O)Nc1nc2cc(C(=O)O)cc(OC)c2n1C/C=C/Cn1c(NC(=O)c2cc(C)nn2CC)nc2cc(C(N)=O)cc(OCC#CC3CCN(C(=O)OC(C)(C)C)CC3)c21 [Example 1, (E)-1-(4-(7-((3-(1-(tert-butoxycarbonyl)piperidin-4-yl)prop-2-yn-1-yl)oxy)-5-carbamoyl-2-(1-ethyl-3-methyl-1H-pyrazole-5-carboxamido)-1H-benzo[d]imidazol-1-yl)but-2-en-1-yl)-2-(1-ethyl-3-methyl-1H-pyrazole-5-carboxamido)-7-methoxy-1H-benzo[d]imidazole-5-carboxylic acid] | > 500 nM
2 | CCn1nc(C)cc1C(=O)Nc1nc2cc(C(N)=O)cc(OC)c2n1C/C=C/Cn1c(NC(=O)c2cc(C)nn2CC)nc2cc(C(N)=O)cc(OCC#CC3CCNCC3)c21 [Example 4, (E)-1-(4-(5-carbamoyl-2-(1-ethyl-3-methyl-1H-pyrazole-5-carboxamido)-7-((3-(piperidin-4-yl)prop-2-yn-1-yl)oxy)-1H-benzo[d]imidazol-1-yl)but-2-en-1-yl)-2-(1-ethyl-3-methyl-1H-pyrazole-5-carboxamido)-7-methoxy-1H-benzo[d]imidazole-5-carboxamide hydrochloride] | 50 to 500 nM
3 | CCn1nc(C)cc1C(=O)Nc1nc2cc(C(N)=O)cc(OC)c2n1C/C=C/Cn1c(NC(=O)c2cc(C)nn2CC)nc2cc(C(N)=O)cc(OCC#CC3CCN(C(=O)OC(C)C)CC3)c21 [Example 5, isopropyl (E)-4-(3-((5-carbamoyl-1-(4-(5-carbamoyl-2-(1-ethyl-3-methyl-1H-pyrazole-5-carboxamido)-7-methoxy-1H-benzo[d]imidazol-1-yl)but-2-en-1-yl)-2-(1-ethyl-3-methyl-1H-pyrazole-5-carboxamido)-1H-benzo[d]imidazol-7-yl)oxy)prop-1-yn-1-yl)piperidine-1-carboxylate] | < 50 nM
4 | CCn1nc(C)cc1C(=O)Nc1nc2cc(C(N)=O)cc(OC)c2n1C/C=C/Cn1c(NC(=O)c2cc(C)nn2CC)nc2cc(C(N)=O)cc(OCC#CC3CCN(C(=O)OC4CCN(C(=O)OC(C)(C)C)CC4)CC3)c21 [Example 8, 1-(tert-butoxycarbonyl)piperidin-4-yl (E)-4-(3-((5-carbamoyl-1-(4-(5-carbamoyl-2-(1-ethyl-3-methyl-1H-pyrazole-5-carboxamido)-7-methoxy-1H-benzo[d]imidazol-1-yl)but-2-en-1-yl)-2-(1-ethyl-3-methyl-1H-pyrazole-5-carboxamido)-1H-benzo[d]imidazol-7-yl)oxy)prop-1-yn-1-yl)piperidine-1-carboxylate] | < 50 nM
5 | CCn1nc(C)cc1C(=O)Nc1nc2cc(C(N)=O)cc(OC)c2n1C/C=C/Cn1c(NC(=O)c2cc(C)nn2CC)nc2cc(C(N)=O)cc(OCC#CC3CCN(C(=O)OC4CCNCC4)CC3)c21 [Example 9, piperidin-4-yl (E)-4-(3-((5-carbamoyl-1-(4-(5-carbamoyl-2-(1-ethyl-3-methyl-1H-pyrazole-5-carboxamido)-7-methoxy-1H-benzo[d]imidazol-1-yl)but-2-en-1-yl)-2-(1-ethyl-3-methyl-1H-pyrazole-5-carboxamido)-1H-benzo[d]imidazol-7-yl)oxy)prop-1-yn-1-yl)piperidine-1-carboxylate hydrochloride] | 50 to 500 nM
6 | CCn1nc(C)cc1C(=O)Nc1nc2cc(C(N)=O)cc(OC)c2n1C/C=C/Cn1c(NC(=O)c2cc(C)nn2CC)nc2cc(C(N)=O)cc(OCC#CC3CCN(C(=O)OCCO)CC3)c21 [Example 10, 2-hydroxyethyl (E)-4-(3-((5-carbamoyl-1-(4-(5-carbamoyl-2-(1-ethyl-3-methyl-1H-pyrazole-5-carboxamido)-7-methoxy-1H-benzo[d]imidazol-1-yl)but-2-en-1-yl)-2-(1-ethyl-3-methyl-1H-pyrazole-5-carboxamido)-1H-benzo[d]imidazol-7-yl)oxy)prop-1-yn-1-yl)piperidine-1-carboxylate] | < 50 nM
7 | CCn1nc(C)cc1C(=O)Nc1nc2cc(C(N)=O)cc(OC)c2n1C/C=C/Cn1c(NC(=O)c2cc(C)nn2CC)nc2cc(C(N)=O)cc(OCC#CC3CCN(C(=O)c4cc(C)nn4CC)CC3)c21 [Example 13, (E)-1-(4-(5-carbamoyl-2-(1-ethyl-3-methyl-1H-pyrazole-5-carboxamido)-7-methoxy-1H-benzo[d]imidazol-1-yl)but-2-en-1-yl)-7-((3-(1-(1-ethyl-3-methyl-1H-pyrazole-5-carbonyl)piperidin-4-yl)prop-2-yn-1-yl)oxy)-2-(1-ethyl-3-methyl-1H-pyrazole-5-carboxamido)-1H-benzo[d]imidazole-5-carboxamide] | < 50 nM
8 | CCn1nc(C)cc1C(=O)Nc1nc2cc(C(N)=O)cc(OC)c2n1C/C=C/Cn1c(NC(=O)c2cc(C)nn2CC)nc2cc(C(N)=O)cc(OCC#CC3CCN(C(=O)NC4CC4)CC3)c21 [Example 14, (E)-1-(4-(5-carbamoyl-2-(1-ethyl-3-methyl-1H-pyrazole-5-carboxamido)-7-methoxy-1H-benzo[d]imidazol-1-yl)but-2-en-1-yl)-7-((3-(1-(cyclopropylcarbamoyl)piperidin-4-yl)prop-2-yn-1-yl)oxy)-2-(1-ethyl-3-methyl-1H-pyrazole-5-carboxamido)-1H-benzo[d]imidazole-5-carboxamide] | < 50 nM

Next, values leading:

Row | EC50 | Structure (SMILES)
9 | > 500 nM | CCn1nc(C)cc1C(=O)Nc1nc2cc(C(=O)NOC)cc(OC)c2n1C/C=C/Cn1c(NC(=O)c2cc(C)nn2CC)nc2cc(C(N)=O)cc(OCC#CC3CCN(C(=O)OC(C)(C)C)CC3)c21 [Example 2, tert-butyl (E)-4-(3-((5-carbamoyl-2-(1-ethyl-3-methyl-1H-pyrazole-5-carboxamido)-1-(4-(2-(1-ethyl-3-methyl-1H-pyrazole-5-carboxamido)-7-methoxy-5-(methoxycarbamoyl)-1H-benzo[d]imidazol-1-yl)but-2-en-1-yl)-1H-benzo[d]imidazol-7-yl)oxy)prop-1-yn-1-yl)piperidine-1-carboxylate]
10 | < 50 nM | CCn1nc(C)cc1C(=O)Nc1nc2cc(C(N)=O)cc(OC)c2n1C/C=C/Cn1c(NC(=O)c2cc(C)nn2CC)nc2cc(C(N)=O)cc(OCC#CC3CCN(C(=O)OC(C)(C)C)CC3)c21 [Example 3, tert-butyl (E)-4-(3-((5-carbamoyl-1-(4-(5-carbamoyl-2-(1-ethyl-3-methyl-1H-pyrazole-5-carboxamido)-7-methoxy-1H-benzo[d]imidazol-1-yl)but-2-en-1-yl)-2-(1-ethyl-3-methyl-1H-pyrazole-5-carboxamido)-1H-benzo[d]imidazol-7-yl)oxy)prop-1-yn-1-yl)piperidine-1-carboxylate]
11 | < 50 nM | CCn1nc(C)cc1C(=O)Nc1nc2cc(C(N)=O)cc(OC)c2n1C/C=C/Cn1c(NC(=O)c2cc(C)nn2CC)nc2cc(C(N)=O)cc(OCC#CC3CCN(C(=O)OC4CC4)CC3)c21 [Example 6, cyclopropyl (E)-4-(3-((5-carbamoyl-1-(4-(5-carbamoyl-2-(1-ethyl-3-methyl-1H-pyrazole-5-carboxamido)-7-methoxy-1H-benzo[d]imidazol-1-yl)but-2-en-1-yl)-2-(1-ethyl-3-methyl-1H-pyrazole-5-carboxamido)-1H-benzo[d]imidazol-7-yl)oxy)prop-1-yn-1-yl)piperidine-1-carboxylate]
12 | < 50 nM | CCn1nc(C)cc1C(=O)Nc1nc2cc(C(N)=O)cc(OC)c2n1C/C=C/Cn1c(NC(=O)c2cc(C)nn2CC)nc2cc(C(N)=O)cc(OCC#CC3CCN(C(=O)OC4CCCC4)CC3)c21 [Example 7, cyclopentyl (E)-4-(3-((5-carbamoyl-1-(4-(5-carbamoyl-2-(1-ethyl-3-methyl-1H-pyrazole-5-carboxamido)-7-methoxy-1H-benzo[d]imidazol-1-yl)but-2-en-1-yl)-2-(1-ethyl-3-methyl-1H-pyrazole-5-carboxamido)-1H-benzo[d]imidazol-7-yl)oxy)prop-1-yn-1-yl)piperidine-1-carboxylate]
13 | < 50 nM | CCn1nc(C)cc1C(=O)Nc1nc2cc(C(N)=O)cc(OC)c2n1C/C=C/Cn1c(NC(=O)c2cc(C)nn2CC)nc2cc(C(N)=O)cc(OCC#CC3CCN(C(=O)C(C)(C)C)CC3)c21 [Example 11, (E)-1-(4-(5-carbamoyl-2-(1-ethyl-3-methyl-1H-pyrazole-5-carboxamido)-7-((3-(1-pivaloylpiperidin-4-yl)prop-2-yn-1-yl)oxy)-1H-benzo[d]imidazol-1-yl)but-2-en-1-yl)-2-(1-ethyl-3-methyl-1H-pyrazole-5-carboxamido)-7-methoxy-1H-benzo[d]imidazole-5-carboxamide]
14 | < 50 nM | CCn1nc(C)cc1C(=O)Nc1nc2cc(C(N)=O)cc(OC)c2n1C/C=C/Cn1c(NC(=O)c2cc(C)nn2CC)nc2cc(C(N)=O)cc(OCC#CC3CCN(C(=O)C4CCN(C(=O)OC(C)(C)C)CC4)CC3)c21 [Example 12, tert-butyl (E)-4-(4-(3-((5-carbamoyl-1-(4-(5-carbamoyl-2-(1-ethyl-3-methyl-1H-pyrazole-5-carboxamido)-7-methoxy-1H-benzo[d]imidazol-1-yl)but-2-en-1-yl)-2-(1-ethyl-3-methyl-1H-pyrazole-5-carboxamido)-1H-benzo[d]imidazol-7-yl)oxy)prop-1-yn-1-yl)piperidine-1-carbonyl)piperidine-1-carboxylate]
